Reference: the NIST ThermoML archive (doi:10.1016/j.jct.2016.02.015)
± gives the expanded uncertainty stated by the source.

Experiment: excess molar enthalpy (molar enthalpy of mixing); xn = mol fraction of the nth substance listed
Conditions: 100 kPa, Liquid, Calvet calorimetry

[Li] [lithium] + [Ga]
Conditions	excess molar enthalpy [kcal/mol]
873 K, x1 = 0.703	-4.64 ± 0.191
873 K, x1 = 0.7734	-3.87 ± 0.191
873 K, x1 = 0.8058	-3.44 ± 0.191
873 K, x1 = 0.8391	-2.92 ± 0.191
873 K, x1 = 0.865	-2.51 ± 0.191
873 K, x1 = 0.894	-2.03 ± 0.191
873 K, x1 = 0.9218	-1.53 ± 0.191
873 K, x1 = 0.9468	-0.98 ± 0.191
873 K, x1 = 0.9801	-0.335 ± 0.191
992 K, x1 = 0.0908	-1.22 ± 0.12
992 K, x1 = 0.1797	-2.44 ± 0.12
992 K, x1 = 0.2283	-3.06 ± 0.0956
992 K, x1 = 0.3064	-3.85 ± 0.0956
992 K, x1 = 0.3748	-4.47 ± 0.0956
1039 K, x1 = 0.4284	-4.73 ± 0.0717
1039 K, x1 = 0.5421	-5.07 ± 0.0717
1039 K, x1 = 0.652	-4.78 ± 0.0717
1039 K, x1 = 0.7322	-4.06 ± 0.0478
1039 K, x1 = 0.7709	-3.54 ± 0.0478
1039 K, x1 = 0.7991	-3.06 ± 0.0478
1039 K, x1 = 0.8282	-2.68 ± 0.0478
